Where “and” joins values, the source holds several entries; their conditions need not be identical. Equal entries are not always repeated.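 Method: 48-hour compound exposure of cells in 96-well plates, five concentrations, linear interpolation of endpoints. The concentration for 50% growth inhibition is given as GI50. TGI denotes the concentration required for complete inhibition of growth.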
Tests used:
Assay in all cases: inhibition of tumour cell growth, NCI panel, 48 h
[1] = test system: M14 melanoma
[2] = test system: CAKI-1 renal
[3] = test system: MDA-MB-231 breast
[4] = test system: COLO 205 colon
[5] = test system: OVCAR-3 ovarian
[6] = test system: HOP-62 NSCLC
[7] = test system: SW-620 colon
[8] = test system: BT-549 breast
[9] = test system: OVCAR-8 ovarian
[10] = test system: HCT-116 colon

Row | Structure (SMILES) | TGI [1] | TGI [2] | TGI [3] | TGI [4] | TGI [5] | TGI [6] | TGI [7] | TGI [8] | TGI [9] | TGI [10] | GI50 [1] | GI50 [2] | GI50 [3] | GI50 [4] | GI50 [5] | GI50 [6] | GI50 [7] | GI50 [8] | GI50 [9] | GI50 [10]
1 | Cc1ccc(NC(=O)COc2ccc(Cl)cc2)cc1Cl | > 100 µM | 81.9 µM | 59.7 µM | > 100 µM | > 100 µM | > 100 µM | > 100 µM | > 100 µM | > 100 µM | > 100 µM | – | – | – | – | – | – | – | – | – | –
2 | O=C1OC(OC/C(Br)=C(\Br)COC2OC(=O)C(Cl)=C2Cl)C(Cl)=C1Cl (stereo not given) | 10.4 µM | 5.54 µM | 10.3 µM | 4.11 µM | 14.5 µM | 29.5 µM | 9.9 µM | 6.45 µM | 13.3 µM | 4.56 µM | – | – | – | – | – | – | – | – | – | –
3 | Cc1c(C(=O)Nc2ccc(N3C[C@@H](C)O[C@@H](C)C3)nc2)cccc1-c1ccc(OC(F)(F)F)cc1 | > 100 µM | 26.3 µM and 23.3 µM | 21.4 µM and 31.3 µM | > 65 µM and 58.8 µM | 24 µM and 24.2 µM | 46.2 µM and 36.8 µM | > 88.4 µM and 93.3 µM | 40.7 µM and 43.9 µM | 30.9 µM and 46.3 µM | > 100 µM | 14.4 µM and 19.3 µM | 3860 nM and 3890 nM | 5.91 µM and 11.8 µM | 13.5 µM and 19.9 µM | 6230 nM and 5130 nM | 12.2 µM and 16.5 µM | 10.6 µM and 13.9 µM | 10.4 µM and 15.1 µM | 7.9 µM and 10.8 µM | 3.4 µM and 3.85 µM
4 | CC1=C(CCC(C)CO)O[C@H]2C[C@H]3[C@@H]4CC[C@H]5C[C@@H](O)CC[C@]5(C)[C@H]4CC(=O)[C@]3(C)[C@@H]12 (stereo not given in full) | 27 µM | 86.3 µM | 47.3 µM | 27.7 µM | > 60.9 µM | 38.3 µM | > 100 µM | 58.4 µM | 44.3 µM | 47.7 µM | – | – | – | – | – | – | – | – | – | –
5 | COC(=O)[C@]1(C)CCC[C@@]2(C)C3=C(CC[C@H]12)C[C@@H](CC(OC(C)=O)OC(C)=O)[C@@H](C)C3 | 20 µM | 18.2 µM | 19.2 µM | 27.4 µM | 27.9 µM | 23.4 µM | 22.7 µM | 25.2 µM | 20.5 µM | 18.9 µM | 11.1 µM | 8730 nM | 8.81 µM | 11 µM | 10700 nM | 11.3 µM | 11 µM | 12.8 µM | 10.2 µM | 8.21 µM
6 | C=C1C(=O)O[C@@H]2/C=C(/C)[C@@H](OC(C)=O)C[C@@H](O)/C(C)=C\[C@@H](OC(=O)[C@]3(C)O[C@@H]3C)[C@@H]12 | 25 µM | 11.1 µM | 29.9 µM | 19.4 µM | 23.8 µM | > 100 µM | 18.5 µM | 18.8 µM | 27.4 µM | 13.6 µM | – | – | – | – | – | – | – | – | – | –
7 | CN1CCN(Cc2ccc(NC(=O)c3cncc(C#Cc4ccc(N)nc4)c3)cc2C(F)(F)F)CC1 | 1.63 µM | 2.09 µM | 1.71 µM | 3.95 µM | 7.88 µM | 6.08 µM | 3.37 µM | 6.43 µM | 9.9 µM | 3.9 µM | 0.486 µM | 312 nM | 0.634 µM | 0.865 µM | 1720 nM | 1.3 µM | 0.893 µM | 1.62 µM | 1.73 µM | 0.596 µM
8 | CC1(C)OCC2OC(n3cnc4c(N)nc(Cl)nc43)C(OS(C)(=O)=O)C2O1 (stereo not given) | > 100 µM | > 100 µM | > 100 µM | > 100 µM | > 100 µM | > 100 µM | > 100 µM | > 100 µM | > 100 µM | > 100 µM | – | – | – | – | – | – | – | – | – | –
9 | Nc1nc(N)c2c(ccc3c2ccn3Cc2cccc([N+](=O)[O-])c2)n1 | 1.77 µM | 1.9 µM | 2.64 µM | 4.08 µM and 1.79 µM | 2.24 µM and 2.22 µM | 1.87 µM | 1.73 µM and 1.64 µM | 3.05 µM | 1.7 µM | 1.84 µM | 0.00865 µM | 56.2 nM | 1.27 µM | 1.1 µM and 0.15 µM | 1010 nM and 794 nM | 0.0654 µM | 0.00556 µM | 1.25 µM | 0.00901 µM | 0.00591 µM
10 | CCC(=O)OCOc1ccc(/C=C2\CCC(CN(C)C)C2=O)cc1 (stereo not given) | 9.23 µM | 11.5 µM | > 19.9 µM | 15.8 µM | 8.29 µM | 33.5 µM | 7.38 µM | 13.6 µM | 11.2 µM | 18.2 µM | – | – | – | – | – | – | – | – | – | –
11 | COc1c(C(N)=O)cc(-c2ccc(Cl)cc2)cc1-c1ccc(S(N)(=O)=O)cc1 | > 25 µM | > 25 µM | 24.2 µM | > 25 µM | > 25 µM | > 25 µM | > 25 µM | > 25 µM | > 25 µM | > 25 µM | > 17.2 µM | 10900 nM | 10.3 µM | > 17.6 µM | 9790 nM | 18.8 µM | 12 µM | 10.5 µM | 9.33 µM | 12.4 µM
12 | COc1cc2[nH]c3c(c2cc1OC)CCN[C@@]31CC[C@@]2(CC3c4c(cc(OC)c(O)c42)CCN3C)C[C@@H]1OC (stereo not given in full) | 34.1 µM | > 79.5 µM | > 100 µM | 38.4 µM | > 94.8 µM | > 100 µM | > 92.2 µM | > 71.3 µM | > 100 µM | > 87.4 µM | – | – | – | – | – | – | – | – | – | –
13 | C[C@@H]1CC[C@@H]2[C@@H]1[C@H](OC(=O)/C=C/C1CCCCC1)[C@]1(C3CCCCC3)C[C@@H](OC(=O)CO)[C@@]2(C)O1 | 31.6 µM | 14.8 µM | 29.6 µM | 30 µM | 26.7 µM | 27.5 µM | 29.8 µM | 5.7 µM | 24.1 µM | 26.6 µM | 14.8 µM | 34 nM | 15.4 µM | 15.4 µM | 13800 nM | 14.6 µM | 15.5 µM | 0.0551 µM | 10.7 µM | 13.5 µM
14 | O=C1C2=C(C(=O)c3ccccc31)C(O)(S(=O)(=O)O)C(O)(S(=O)(=O)O)C1N=CC=CC21 (stereo not given) | 32.1 µM and 29.4 µM | 9.4 µM and 1.87 µM | > 100 µM and 46.6 µM | 29.9 µM and 61.5 µM | 6.78 µM and 11.7 µM | 31.8 µM and 19.2 µM | 96.9 µM and 17.2 µM | 39.9 µM and 25.8 µM | > 100 µM and 18.6 µM | 20.1 µM and 12.7 µM | 4.83 µM and 3.2 µM | 1720 nM and 315 nM | 14.5 µM and 4.51 µM | 7.08 µM and 4.11 µM | 2330 nM and 2860 nM | 5.36 µM and 3.03 µM | 3.65 µM and 4.29 µM | 5.88 µM and 5.04 µM | 3.46 µM and 4.23 µM | 3.34 µM and 2.81 µM
15 | CC(C)(C)NCC(O)c1ccccc1Cl (stereo not given) | > 100 µM | > 100 µM | > 100 µM | > 100 µM | > 100 µM | > 100 µM | > 100 µM | > 100 µM | > 100 µM | > 100 µM | > 100 µM | > 100000 nM | > 100 µM | > 100 µM | > 100000 nM | > 100 µM | > 100 µM | > 100 µM | > 100 µM | > 100 µM
16 | CC12CCC(C1)C(C)(C)C2OC(=O)c1ccccc1N (stereo not given) | 31.6 µM | 29.9 µM | 30.2 µM | 29 µM | 30.8 µM | 32.4 µM | 29.6 µM | 34.3 µM | 38.5 µM | 26.6 µM | – | – | – | – | – | – | – | – | – | –
17 | CCOC(=O)N1CCC(N=C2CSc3nnc(-c4cc(C(F)(F)F)cc(C(F)(F)F)c4)n3N2)CC1 | 3.54 µM | 5.97 µM | 3.56 µM | 3.93 µM | 3.59 µM | 4.03 µM | 4.27 µM | 3.79 µM | 6.25 µM | 3.7 µM | 1.95 µM | 2040 nM | 1.81 µM | 2.17 µM | 2010 nM | 2.17 µM | 2.09 µM | 1.89 µM | 2.44 µM | 1.9 µM
18 | COC(=O)Nc1nc2ccc(C(=O)c3cccc(I)c3)cc2[nH]1 | 20.7 µM | 11.2 µM | 5.52 µM | 4.55 µM | 0.207 µM | 38.5 µM | 14.9 µM | 6.57 µM | 30.4 µM | 13.8 µM | 0.072 µM | 53.8 nM | 0.166 µM | 0.0472 µM | 33.2 nM | 0.304 µM | 0.0394 µM | 0.16 µM | 0.132 µM | 0.0402 µM
19 | CC(=O)OC1CC2(C)C(=CC1C1SCCS1)CCC1C2CCC2(C)C(OC(C)=O)CCC12 (stereo not given) | > 100 µM | > 100 µM | > 100 µM | > 100 µM | > 100 µM | > 100 µM | > 100 µM | > 100 µM | > 100 µM | > 100 µM | – | – | – | – | – | – | – | – | – | –
20 | Clc1cnc(Nc2ccc(OCCN3CCCC3)cc2)nc1NCc1ccco1 | 9.55 µM | 26.6 µM | 13.5 µM | 4.05 µM | 9.75 µM | 6.58 µM | 13 µM | 7.47 µM | 13.7 µM | 28.6 µM | 2.46 µM | 1630 nM | 2.48 µM | 1.71 µM | 3010 nM | 2.24 µM | 2.26 µM | 2.29 µM | 3.54 µM | 2.56 µM
21 | NC1CC(=O)c2c(-c3cccs3)sc(-c3cccs3)c21 (stereo not given) | > 100 µM | > 100 µM | > 100 µM | 63.8 µM | 92.4 µM | > 100 µM | 58 µM | 63.8 µM | > 100 µM | 29.9 µM | 37.3 µM | 33400 nM | 27.9 µM | 21.5 µM | 26100 nM | 73.4 µM | 9.11 µM | 19.5 µM | 30.2 µM | 15.3 µM
22 | COc1cc2ncnc(Oc3ccc(NC(=O)Nc4ccc(CN5CCOCC5)c(C(F)(F)F)c4)c4ccccc34)c2cc1OC | 4.14 µM | 3.16 µM | 6.32 µM | 3.91 µM | 6.15 µM | 10.1 µM | 7.43 µM | 5.28 µM | 6.53 µM | 2.55 µM | 0.935 µM | 454 nM | 1.2 µM | 0.558 µM | 1170 nM | 2.5 µM | 1.04 µM | 1.11 µM | 0.537 µM | 0.802 µM
